Test results published in patent US9586986B2, “Substituted 7-deazapurine ribonucleosides for therapeutic uses” (Institute of Organic Chemistry and Biochemistry ASCR, v.v.i., priority 2014, dated 2017).

What was measured:
Assay type in all cases: cell-based
[1] = tested on: HCV subtype 2A replicon in Huh-7 cells; assay: HCV sub-genomic reporter replicon assay, subtype 2A; details: Hepatitis C virus; Huh-7 cells, HCV subtype 2A replicon; read-out: Replicon 2A EC50
Procedure: (§1) Compounds were also tested in Huh-7 cells harboring sub-genomic reporter replicons derived from HCV subtypes 1B and 2A (ref.: Stuyver, L. J.; Whitaker, T.; McBrayer, T. R.; Hernandez-Santiago, B. I.; Lostia, S.; Tharnish, P. M.; Ramesh, M.; Chu, C. K.; Jordan, R.; Shi, J. X.; Rachakonda, S.; Watanabe, K. A.; Otto, M. J.; Schinazi, R. F. Antimicrob. Agents Chemother. 2003, 47, 244-254).

K562 = assay: Cytostatic/cytotoxic MTT assay, K562; details: Homo sapiens, K562; 72 h incubation; read-out: MTT, IC50 K562
Text: (§2) Unless otherwise stated, all cells were purchased from the […] (ATCC). The CCRF-CEM line is derived from T lymphoblastic leukemia, evincing high chemosenzitivity, K562 represent cells from a […] patient sample with bcr-abl translocation, HCT116 is colorectal tumor cell line and its p53 gene knock-down counterpart (HCT116p53−/−, Horizon Discovery, UK) is a model of human cancers with p53 inactivation frequently associated with poor prognosis, A549 cell line is lung adenocarcinoma. The daunorubicin resistant subline of CCRF-CEM cells (CEM-DNR bulk) and paclitaxel resistant subline K562-TAX were selected in our laboratory by cultivation of maternal cell lines in increasing concentrations of daunorubicine or paclitaxel, respectively. The CEM-DNR cells overexpress mrp-1 and mdr-1 genes, while K562-TAX cells overexpress mdr-1 only. Both proteins belong to the family of ABC transporters and are involved in the primary and/or acquired multidrug resistance phenomenon (ref.: Gottesman, M. M.; Fojo, T.; Bates, S. E. Multidrug resistance in cancer: role of ATP-dependent transporters. Nat. Rev. Cancer. 2002, 2, 48-58. (b) Noskova, V.; Dzubak, P.; Kuzmina, G.; Ludkova, A.; Stehlik, D.; Trojanec, R.; Janostakova, A.; Korinkova, G.; Mihal, V.; Hajduch, M. In vitro chemoresistance profile and expression/function of MDR associated proteins in resistant cell lines derived from CCRF-CEM, K562, A549 and MDA MB 231 parental cells. Neoplasma 2002, 49, 418-425). Non-malignant MRC-5 and BJ cells, derived from normal human fibroblasts, were used as controls. The cells were maintained in Nunc/Corning 80 cm^2 plastic tissue culture flasks and cultured in cell culture medium (DMEM/RPMI 1640 with 5 g/L glucose, 2 mM glutamine, 100 U/mL penicillin, 100 µg/mL streptomycin, 10% fetal calf serum, and NaHCO3). Cell suspensions were prepared and diluted according to the particular cell type and the expected target cell density (25,000-30,000 cells/well based on cell growth characteristics). Cells were added by pipette (80 L) into 96-well microtiter plates. Inoculates were allowed a pre-incubation period of 24 h at 37° C. and 5% CO2 for stabilization. Four-fold dilutions, in 20-L aliquots, of the intended test concentration were added to the microtiter plate walls at time zero. All test compound concentrations were examined in duplicate. Incubation of the cells with the test compounds lasted for 72 h at 37° C., in a 5% CO2 atmosphere at 100% humidity. At the end of the incubation period, the cells were assayed using MTT. Aliquots (10 L) of the MTT stock solution (5 mg/ml) were pipetted into each well and incubated for another 1-4 h. After this incubation period the formazan produced was dissolved by addition of 100 µL/well of 10% aq SDS (pH 5.5), followed by a further incubation at 37° C. overnight. The optical density was measured at 540 nm. The IC50 value, the drug concentration inhibiting the cell growth by 50%, was calculated from appropriate dose-response curves.
(§3) In vitro cytotoxic/cytostatic activity final nucleosides 1-5 was initially evaluated against […] cell lines derived from human solid tumors including lung (A549 cells) and colon (HCT116 and HCT116p53−/−) carcinomas, as well as leukemia cell lines (CCRF-CEM, CEM-DNR, K562 and K562-TAX) and, for comparison, non-malignant BJ and MRC-5 fibroblasts. Concentrations inhibiting the cell growth by 50% (IC50) were determined using a quantitative metabolic staining with 3-(4,5-dimethylthiazol-2-yl)-2,5-diphenyltetrazolium bromide (MTT) (ref.: Denizot, F.; Lang, R. Rapid colorimetric assay for cell growth and survival: Modifications to the tetrazolium dye procedure giving improved sensitivity and reliability. J. Immunol. Meth. 1986, 89, 271-277) following a 3-day treatment.

HCT116p53-/- = assay: Cytostatic/cytotoxic MTT assay, HCT116p53-/-; details: Homo sapiens, HCT-116; 72 h incubation; read-out: MTT, IC50 HCT116 p53-/-
Text: as §2, §3
Multidrug resistance is a major therapeutic problem in cancer chemotherapy. […]

[2] = tested on: HCV subtype 1B replicon in Huh-7 cells; assay: HCV sub-genomic reporter replicon assay, subtype 1B; details: Hepatitis C virus; Huh-7 cells, HCV subtype 1B replicon; read-out: Replicon 1B EC50
Procedure: as §1

HL60 = assay: XTT cytotoxicity assay, HL-60; details: Homo sapiens, HL-60; 72 h incubation; read-out: XTT, IC50 HL60
Procedure: (§4) HL-60, Hela S3 and HepG2 cell lines (ATCC) were grown in RPMI-1640 or DMEM medium supplemented with 10% fetal calf serum, […] of streptomycin, 200 U/mL of penicillin G and 4 mM glutamine in a humidified atmosphere containing 5% CO2 at 37° C. Sensitivity of these cell lines to the synthesized compounds was assessed with the use of XTT cell proliferation kit II (Roche Diagnostics GmbH, Mannheim, Germany) according to the manufacturer's instructions. Briefly, cells were seeded in a 96-well plate at a density of 10,000 cells per well (90 μL). After 24 h, 10 μL of the tested compounds were added to the culture media at desired concentration range and incubated for 72 h. After that 50 μL of the XTT solution was added (1 mg/mL XTT+0.383 mg/mL N-methyl dibenzopyrazine methyl sulfate). The absorbance was recorded at 495 nm following a 2 h-incubation with the dye. IC50 values were determined by non-linear regression method using GraphPad Prism version 5.00 for Windows (GraphPad Software, La Jolla, Calif., USA).
(§5) In addition, the anti-proliferative effect was tested against a human T-lymphoblastic leukemia line CCRF-CEM, promyelocytic leukemia HL-60 and cervical carcinoma HeLa S3 growing in liquid suspension. Cell viability was determined following a 3-day incubation using 2,3-bis-(2-methoxy-4-nitro-5-sulfophenyl)-2H-tetrazolium-5-carboxanilide (XTT) assay (ref.: Scudiero, D. A.; Shoemaker, R. H.; Paull, K. D.; Monks, A.; Tierney, S.; Nofziger, T. H.; Currens, M. J.; Seniff, D.; Boyd M. R. Evaluation of a Soluble Tetrazolium/Formazan Assay for Cell Growth and Drug Sensitivity in Culture Using Human and Other Tumor Cell Lines. Cancer Res. 1988, 48, 4827-4833).

HeLa S3 = assay: XTT cytotoxicity assay, HeLa S3; details: Homo sapiens, HeLa S3; 72 h incubation; read-out: XTT, IC50 HeLa S3
Procedure: as §4, §5

| SMILES | EC50 [1] [µM] | IC50 (K562) [µM] | IC50 (HCT116p53-/-) [µM] | EC50 [2] [µM] | IC50 (HL60) [µM] | IC50 (HeLa S3) [µM] |
| --- | --- | --- | --- | --- | --- | --- |
| CSc1ncnc2c1c(-c1cccs1)cn2[C@@H]1O[C@H](CO)[C@@H](O)[C@H]1O [Compound 2c, 4-Methylsulfanyl-7-(β-D-ribofuranosyl)-5-(thiophen-2-yl)-7H-pyrrolo[2,3-d]pyrimidine] | > 44 | 11.6 | > 20 | 5.42 | 1.13 | 1.96 |
| Cc1ncnc2c1c(-c1cc3ccccc3o1)cn2[C@@H]1O[C@H](CO)[C@@H](O)[C@H]1O [Compound 5f, 5-(Benzofuran-2-yl)-4-methyl-7-(β-D-ribofuranosyl)-7H-pyrrolo[2,3-d]pyrimidine] | 40.2 | 19.5 | > 20 | 6.76 | > 20 | > 20 |
| CN(C)c1ncnc2c1c(-c1ccccc1)cn2[C@@H]1O[C@H](CO)[C@@H](O)[C@H]1O [Compound 4e, 4-Dimethylamino-5-phenyl-7-(β-D-ribofuranosyl)-7H-pyrrolo[2,3-d]pyrimidine] | > 44 | > 20 | > 20 | 26.9 | > 20 | > 20 |
| CSc1ncnc2c1c(-c1ccccc1)cn2[C@@H]1O[C@H](CO)[C@@H](O)[C@H]1O [Compound 2e, 4-Methylsulfanyl-5-phenyl-7-(β-D-ribofuranosyl)-7H-pyrrolo[2,3-d]pyrimidine] | > 44 | > 20 | > 20 | 23.3 | > 20 | > 20 |
| Cc1ncnc2c1c(-c1ccccc1)cn2[C@@H]1O[C@H](CO)[C@@H](O)[C@H]1O [Compound 5e, 4-Methyl-5-phenyl-7-(β-D-ribofuranosyl)-7H-pyrrolo[2,3-d]pyrimidine] | > 44 | > 20 | 95.3 | 34.8 | > 20 | > 20 |
| CN(C)c1ncnc2c1c(-c1cccs1)cn2[C@@H]1O[C@H](CO)[C@@H](O)[C@H]1O [Compound 4c, 4-Dimethylamino-7-(β-D-ribofuranosyl)-5-(thiophen-2-yl)-7H-pyrrolo[2,3-d]pyrimidine] | > 44 | > 20 | > 20 | 16.8 | 11.8 | > 20 |
| COc1ncnc2c1c(-c1ccccc1)cn2[C@@H]1O[C@H](CO)[C@@H](O)[C@H]1O [Compound 1e, 4-Methoxy-5-phenyl-7-(β-D-ribofuranosyl)-7H-pyrrolo[2,3-d]pyrimidine] | > 44 | > 20 | > 20 | 21 | > 20 | > 20 |
| CNc1ncnc2c1c(-c1ccoc1)cn2[C@@H]1O[C@H](CO)[C@@H](O)[C@H]1O [Compound 3b, 5-(Furan-3-yl)-4-methylamino-7-(β-D-ribofuranosyl)-7H-pyrrolo[2,3-d]pyrimidine] | > 44 | > 20 | > 20 | 35.9 | > 15 | > 20 |
| CSc1ncnc2c1c(-c1ccsc1)cn2[C@@H]1O[C@H](CO)[C@@H](O)[C@H]1O [Compound 2d, 4-Methylsulfanyl-7-(β-D-ribofuranosyl)-5-(thiophen-3-yl)-7H-pyrrolo[2,3-d]pyrimidine] | > 44 | 0.45 | > 20 | 10.9 | 4.59 | > 20 |
| CN(C)c1ncnc2c1c(I)cn2[C@@H]1O[C@H](CO)[C@@H](O)[C@H]1O [Compound 4h, 4-Dimethylamino-5-iodo-7-(β-D-ribofuranosyl)-7H-pyrrolo[2,3-d]pyrimidine] | > 44 | 0.07 | 0.12 | 0.69 | 0.05 | 0.19 |
| Cc1ncnc2c1c(-c1cccs1)cn2[C@@H]1O[C@H](CO)[C@@H](O)[C@H]1O [Compound 5c, 4-Methyl-7-(β-D-ribofuranosyl)-5-(thiophen-2-yl)-7H-pyrrolo[2,3-d]pyrimidine] | > 44 | > 20 | > 20 | 6.67 | 5.73 | > 15 |
| Cc1ncnc2c1c(-c1ccco1)cn2[C@@H]1O[C@H](CO)[C@@H](O)[C@H]1O [Compound 5a, 5-(Furan-2-yl)-4-methyl-7-(β-D-ribofuranosyl)-7H-pyrrolo[2,3-d]pyrimidine] | 0.15 | 0.04 | 0.04 | 0.07 | 0.21 | 1.33 |
| COc1ncnc2c1c(-c1ccco1)cn2[C@@H]1O[C@H](CO)[C@@H](O)[C@H]1O [Compound 1a, 5-(Furan-2-yl)-4-methoxy-7-(β-D-ribofuranosyl)-7H-pyrrolo[2,3-d]pyrimidine] | 0.03 | 0.06 | 0.04 | 0.02 | 0.1 | 1.02 |
| CNc1ncnc2c1c(-c1ccccc1)cn2[C@@H]1O[C@H](CO)[C@@H](O)[C@H]1O [Compound 3e, 4-Methylamino-5-phenyl-7-(β-D-ribofuranosyl)-7H-pyrrolo[2,3-d]pyrimidine] | > 44 | > 20 | > 100 | > 44 | > 20 | > 20 |
